Columns and labels:
[1] = target: Leukotriene B4 receptor 1 (Homo sapiens) (UniProt Q15722); assay: The compound was tested for inhibition of [3H]LTB4 binding to Leukotriene B4 (LTB4) receptor on the human neutrophils (PMN) at concentration of 1 uM
[2] = target: Leukotriene B4 receptor 1 (Homo sapiens) (UniProt Q15722); assay: The compound was tested for inhibition of [3H]LTB4 binding to Leukotriene B4 (LTB4) receptor on the human neutrophils (PMN) at concentration of 100 nM
[3] = target: Leukotriene B4 receptor 1 (Homo sapiens) (UniProt Q15722); assay: The compound was tested for inhibition of [3H]-LTB4 binding to Leukotriene B4 (LTB4) receptor on the human neutrophils (PMN) at concentration of 10 nM

Leukotriene B4 receptor 1 (Homo sapiens), sequence (Q15722 whole entry): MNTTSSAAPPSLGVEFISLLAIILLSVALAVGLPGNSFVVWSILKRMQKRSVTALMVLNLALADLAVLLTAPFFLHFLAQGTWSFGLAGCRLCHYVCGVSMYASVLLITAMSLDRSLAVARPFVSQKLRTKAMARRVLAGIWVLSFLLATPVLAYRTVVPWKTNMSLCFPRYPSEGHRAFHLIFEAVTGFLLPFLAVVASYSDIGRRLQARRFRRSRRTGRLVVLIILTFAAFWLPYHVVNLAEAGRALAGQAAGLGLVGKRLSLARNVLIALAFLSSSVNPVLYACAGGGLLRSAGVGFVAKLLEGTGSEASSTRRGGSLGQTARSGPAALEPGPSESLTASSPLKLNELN

Row | inhibition [1] | inhibition [2] | inhibition [3] | SMILES
1 | 99% | 95% | 64% | COc1cc(C(=O)N(C(C)C)C(C)C)ccc1OCCCCOc1ccc2c(N)noc2c1
2 | 92% | 37% | < 10% | COc1cc(C(=O)N(C(C)C)C(C)C)ccc1OCCCOc1ccc2c(N)noc2c1
3 | 90% | 10% | < 10% | COc1cc(C(=O)N(C(C)C)C(C)C)ccc1OCCCCCOc1ccc2c(N)noc2c1

From ChEMBL document CHEMBL1130364, “3-Amino-1,2-benzisoxazoles: A new family of potent inhibitors of LTB4 binding to the human neutrophils” (Bioorg Med Chem Lett, 1997)
